Test results: patent publication US6737383B1, “Herbicidal oxadiazolidines” (priority 1999, dated 2004)

Tests used:
smallflower flatsedge = assay: Test B flood test smallflower flatsedge; assay type: in vivo, Cyperus difformis; settings: for S. Flatsedge plant response rating: scale of 0 to 10 where 0 is no effect and 10 is complete control
Summary of the method: (§1)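 Each value is a visual injury score relative to controls, with 10 meaning complete control and 0 no effect. Evaluation took place twelve to sixteen days after the 2-leaf-stage plants were treated and kept in the greenhouse.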

duck salad = assay: Test B flood test duck salad; assay type: in vivo, Heteranthera limosa
Summary of the method: as §1

wild oat = assay: Test B pre/postemergence wild oat; assay type: in vivo, Avena fatua
Summary of the method: (§2)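 Response is a visual 0-to-10 score relative to untreated plants, where 0 means no effect and 10 means complete control, taken twelve to sixteen days after application. Treatments went onto soil at planting and onto foliage of 1- to 4-leaf plants, using a surfactant-containing non-phytotoxic solvent.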

blackgrass = assay: Test B pre/postemergence blackgrass; assay type: in vivo, Alopecurus myosuroides
Summary of the method: as §2

corn = assay: Test B pre/postemergence corn; assay type: in vivo, Zea mays
Summary of the method: as §2

bamyardgrass = assay: Test B flood test barnyardgrass; assay type: in vivo, Echinochloa crus-galli
Summary of the method: as §1

surinam grass = assay: Test B pre/postemergence surinam grass; assay type: in vivo, Brachiaria decumbens
Summary of the method: as §2

rice = assay: Test B flood test rice; assay type: in vivo, Oryza sativa
Summary of the method: as §1

sugar beet = assay: Test B pre/postemergence sugar beet; assay type: in vivo, Beta vulgaris
Summary of the method: as §2

crabgrass = assay: Test B pre/postemergence crabgrass; assay type: in vivo, Digitaria sanguinalis
Summary of the method: as §2

giant foxtail = assay: Test B pre/postemergence giant foxtail; assay type: in vivo, Setaria faberii
Summary of the method: as §2

wheat = assay: Test B pre/postemergence wheat; assay type: in vivo, Triticum aestivum
Summary of the method: as §2

purple nutsedge = assay: Test B pre/postemergence purple nutsedge; assay type: in vivo, Cyperus rotundus
Summary of the method: as §2

bedstraw = assay: Test B pre/postemergence bedstraw; assay type: in vivo, Galium aparine
Summary of the method: as §2

rape = assay: Test B pre/postemergence rape; assay type: in vivo, Brassica napus
Summary of the method: as §2

velvetleaf = assay: Test B pre/postemergence velvetleaf; assay type: in vivo, Abutilon theophrasti
Summary of the method: as §2

[1] = Rate 250 g/ha, Postemergence (flood test), scale 0 to 10, 0 is no effect, 10 is complete control
[2] = Postemergence (flood test species), Rate 125 g/ha, scale of 0 to 10 where 0 is no effect and 10 is complete control
[3] = Rate 31 g/ha, Postemergence section (flood test species), scale 0 to 10
[4] = Rate 62 g/ha, Postemergence section, flood test species, scale of 0 to 10 where 0 is no effect and 10 is complete control
[5] = Preemergence, Rate 31 g/ha, visual rating, scale 0 to 10 (0 no effect, 10 complete control)
[6] = Preemergence, Rate 62 g/ha, scale 0 to 10 (0 no effect, 10 complete control)
[7] = Preemergence, Rate 125 g/ha, 0 is no effect, 10 is complete control
[8] = Preemergence, Rate 250 g/ha, scale 0 to 10, 0 is no effect, 10 is complete control
[9] = Rate 62 g/ha, Postemergence, scale of 0 to 10 where 0 is no effect and 10 is complete control
[10] = Rate 250 g/ha, Postemergence, scale 0 to 10, 0 is no effect, 10 is complete control
[11] = Postemergence, Rate 125 g/ha, scale of 0 to 10 where 0 is no effect and 10 is complete control
[12] = Rate 31 g/ha, Postemergence, scale 0 to 10

## Cc1noc(C)c1-n1c(=O)on(C(=O)N(c2ccc(F)cc2F)C(C)C)c1=O [Compound 156]
Smallflower flatsedge; Postemergence (flood test species), Rate 125 g/ha
  S. Flatsedge plant response rating: 0
Smallflower flatsedge; Rate 62 g/ha, Postemergence section, flood test species
  S. Flatsedge plant response rating: 0
Smallflower flatsedge; [1]
  Plant response rating, S. Flatsedge: 0
Duck salad; [2]
  Ducksalad plant response rating: 0
Duck salad; [3]
  Ducksalad plant response rating: 0
Duck salad; [4]
  Ducksalad plant response rating: 0
Duck salad; [1]
  Plant response rating, Ducksalad: 0
Wild oat; [5]
  Wild oats plant response rating: 0
Wild oat; [6]
  Wild oats plant response rating: 0
Wild oat; [7]
  Wild oats plant response rating (0 to 10 scale): 0
Wild oat; [8]
  Wild oats plant response rating: 0
Wild oat; [9]
  Wild oats plant response rating: 0
Wild oat; [10]
  Plant response rating, Wild oats: 0
blackgrass; [11]
  Blackgrass plant response rating: 0
blackgrass; [5]
  Blackgrass plant response rating: 0
blackgrass; [6]
  Blackgrass plant response rating: 0
blackgrass; [7]
  Blackgrass plant response rating (0 to 10 scale): 0
blackgrass; [8]
  Blackgrass plant response rating: 3
blackgrass; [12]
  Blackgrass plant response rating: 0
blackgrass; [9]
  Blackgrass plant response rating: 0
blackgrass; [10]
  Plant response rating, Blackgrass: 0
corn; [11]
  Corn plant response rating: 0
corn; [5]
  Corn plant response rating: 0
corn; [6]
  Corn plant response rating: 0
corn; [7]
  Corn plant response rating (0 to 10 scale): 0
corn; [8]
  Corn plant response rating: 0
corn; [12]
  Corn plant response rating: 0
corn; [9]
  Corn plant response rating: 0
corn; [10]
  Plant response rating, Corn: 0
bamyardgrass; [2]
  Barnyardgrass plant response rating: 0
bamyardgrass; [3]
  Barnyardgrass plant response rating: 0
bamyardgrass; [4]
  Barnyardgrass plant response rating: 0
bamyardgrass; [1]
  Plant response rating, Barnyardgrass: 0
Surinam grass; [11]
  B. signalgrass plant response rating: 0
Surinam grass; [5]
  B. signalgrass plant response rating: 0
Surinam grass; [6]
  B. signalgrass plant response rating: 0
Surinam grass; [7]
  B. signalgrass plant response rating (0 to 10 scale): 0
Surinam grass; [8]
  B. signalgrass plant response rating: 2
Surinam grass; [12]
  B. signalgrass plant response rating: 0
Surinam grass; [9]
  B. signalgrass plant response rating: 0
Surinam grass; [10]
  Plant response rating, B. signalgrass: 0
rice; [2]
  Rice plant response rating: 0
rice; [3]
  Rice plant response rating: 0
rice; [4]
  Rice plant response rating: 0
rice; [1]
  Plant response rating, Rice: 0
Sugar beet; [11]
  Sugarbeets plant response rating: 0
Sugar beet; [5]
  Sugarbeets plant response rating: 0
Sugar beet; [6]
  Sugarbeets plant response rating: 0
Sugar beet; [7]
  Sugarbeets plant response rating (0 to 10 scale): 0
Sugar beet; [8]
  Sugarbeets plant response rating: 0
Sugar beet; [9]
  Sugarbeets plant response rating: 0
Sugar beet; [10]
  Plant response rating, Sugarbeets: 0
crabgrass; [11]
  Crabgrass plant response rating: 0
crabgrass; [5]
  Crabgrass plant response rating: 0
crabgrass; [6]
  Crabgrass plant response rating: 0
crabgrass; [7]
  Crabgrass plant response rating (0 to 10 scale): 4
crabgrass; [8]
  Crabgrass plant response rating: 6
crabgrass; [12]
  Crabgrass plant response rating: 0
crabgrass; [9]
  Crabgrass plant response rating: 0
crabgrass; [10]
  Plant response rating, Crabgrass: 0
Giant foxtail; [11]
  Giant foxtail plant response rating: 0
Giant foxtail; [5]
  Giant foxtail plant response rating: 0
Giant foxtail; [6]
  Giant foxtail plant response rating: 0
Giant foxtail; [7]
  Giant foxtail plant response rating (0 to 10 scale): 2
Giant foxtail; [8]
  Giant foxtail plant response rating: 7
Giant foxtail; [12]
  Giant foxtail plant response rating: 0
Giant foxtail; [9]
  Giant foxtail plant response rating: 0
Giant foxtail; [10]
  Plant response rating, Giant foxtail: 0
wheat; [5]
  Wheat plant response rating: 0
wheat; [6]
  Wheat plant response rating: 0
wheat; [7]
  Wheat plant response rating (0 to 10 scale): 0
wheat; [8]
  Wheat plant response rating: 0
wheat; [9]
  Wheat plant response rating: 0
wheat; [10]
  Plant response rating, Wheat: 0
Purple nutsedge; [11]
  Nutsedge plant response rating: 0
Purple nutsedge; [5]
  Nutsedge plant response rating: 0
Purple nutsedge; [6]
  Nutsedge plant response rating: 0
Purple nutsedge; [7]
  Nutsedge plant response rating (0 to 10 scale): 0
Purple nutsedge; [8]
  Nutsedge plant response rating: 0
Purple nutsedge; [12]
  Nutsedge plant response rating: 0
Purple nutsedge; [9]
  Nutsedge plant response rating: 0
Purple nutsedge; [10]
  Plant response rating, Nutsedge: 0
bedstraw; [11]
  Bedstraw plant response rating: 0
bedstraw; [5]
  Bedstraw plant response rating: 0
bedstraw; [6]
  Bedstraw plant response rating: 0
bedstraw; [7]
  Bedstraw plant response rating (0 to 10 scale): 0
bedstraw; [8]
  Bedstraw plant response rating: 0
bedstraw; [12]
  Bedstraw plant response rating: 0
bedstraw; [9]
  Bedstraw plant response rating: 0
bedstraw; [10]
  Plant response rating, Bedstraw: 0
rape; [11]
  Rape plant response rating: 0
rape; [5]
  Rape plant response rating: 0
rape; [6]
  Rape plant response rating: 0
rape; [7]
  Rape plant response rating (0 to 10 scale): 0
rape; [8]
  Rape plant response rating: 0
rape; [12]
  Rape plant response rating: 0
rape; [9]
  Rape plant response rating: 0
rape; [10]
  Plant response rating, Rape: 0
velvetleaf; [5]
  Velvetleaf plant response rating: 0
velvetleaf; [6]
  Velvetleaf plant response rating: 0
velvetleaf; [7]
  Velvetleaf plant response rating (0 to 10 scale): 0
velvetleaf; [8]
  Velvetleaf plant response rating: 0
velvetleaf; [9]
  Velvetleaf plant response rating: 0
velvetleaf; [10]
  Plant response rating, Velvetleaf: 0
